Patent US20260285850A1, “SUBSTITUTED OXAZOLIDINONES AND IMIDAZOLINONES AS HERBICIDES” (FMC CORPORATION, priority 2023, published 2026)

What was measured:
Assay type in all cases: in vivo
[1] = test system: barnyardgrass (Echinochloa crus-galli); assay: Test A preemergence soil spray, visual injury rating 0-100; settings: 10 days
How it was run: (§1)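 Compound in a non-phytotoxic, surfactant-containing solvent is applied either as a directed soil spray before seedlings emerge or onto emerged plants 2-10 cm tall; pots hold a loam-sand blend. Plants grow 10 days under greenhouse conditions and are rated by eye against untreated controls (0 no effect, 100 complete control).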

[2] = test system: blackgrass (Alopecurus myosuroides); assay: as above; settings: 10 days
How it was run: as §1

corn (Zea mays) [3] = assay: as above; settings: 10 days
How it was run: as §1

[4] = test system: green foxtail (Setaria viridis); assay: as above; settings: 10 days
How it was run: as §1

kochia (Bassia scoparia) [5] = assay: as above; settings: 10 days
How it was run: as §1

[6] = test system: oat, wild (wild oat, Avena fatua); assay: as above; settings: 10 days
How it was run: as §1

[7] = test system: ragweed (common ragweed, Ambrosia artemisiifolia); assay: as above; settings: 10 days
How it was run: as §1

[8] = test system: ryegrass, Italian (italian ryegrass, Lolium multiflorum); assay: as above; settings: 10 days
How it was run: as §1

soybean (Glycine max) [9] = assay: as above; settings: 62 g ai/ha, 10 days, 0 = no effect, 100 = complete control
How it was run: as §1

[10] = test system: wheat (Triticum aestivum); assay: as above; settings: 10 days
How it was run: as §1

[11] = test system: barnyardgrass (Echinochloa crus-galli); assay: Test A postemergence application, visual injury rating 0-100
How it was run: as §1

[12] = test system: blackgrass (Alopecurus myosuroides); assay: as above
How it was run: as §1

corn (Zea mays) [13] = assay: as above
How it was run: as §1

[14] = test system: galium (catchweed bedstraw, Galium aparine); assay: as above
How it was run: as §1

[15] = test system: green foxtail (Setaria viridis); assay: as above
How it was run: as §1

[16] = test system: horseweed (Erigeron canadensis); assay: as above
How it was run: as §1

kochia (Bassia scoparia) [17] = assay: as above
How it was run: as §1

[18] = test system: oat, wild (wild oat, Avena fatua); assay: as above
How it was run: as §1

[19] = test system: palmer (palmer amaranth, palmer pigweed, Amaranthus palmeri); assay: as above
How it was run: as §1

[20] = test system: ragweed (common ragweed, Ambrosia artemisiifolia); assay: as above
How it was run: as §1

[21] = test system: ryegrass, Italian (italian ryegrass, Lolium multiflorum); assay: as above
How it was run: as §1

soybean (Glycine max) [22] = assay: as above
How it was run: as §1

[23] = test system: wheat (Triticum aestivum); assay: as above
How it was run: as §1

[24] = test system: barnyardgrass (Echinochloa crusgalli); assay: Test B flooded paddy test, visual plant response rating 0-100; settings: 250 g ai/ha, Flood, applied to paddy water, evaluated after 13 days
How it was run: (§2)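 Treatment occurs at the 2-leaf stage by adding compound to floodwater standing 3 cm above the soil, a level kept for the whole test. Plants stay in the greenhouse 13 days before visual comparison with controls.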

[25] = test system: ducksalad (Heteranthera limosa); assay: as above; settings: 250 g ai/ha, Flood, applied to paddy water, evaluated after 13 days
How it was run: as §2

rice (Oryza sativa) = assay: as above; settings: 250 g ai/ha, Flood, applied to paddy water, evaluated after 13 days
How it was run: as §2

[26] = test system: sedge, umbrella (small-flower umbrella sedge, Cyperus difformis); assay: as above; settings: 250 g ai/ha, Flood, applied to paddy water, evaluated after 13 days
How it was run: as §2

[27] = 62 g ai/ha, 0 = no effect, 100 = complete control
[28] = 62 g ai/ha, postemergence, 10 days, 0 = no effect, 100 = complete control
[29] = Postemergence, 16 g ai/ha, greenhouse 10 days, 0 no effect, 100 complete control

CC1(C(=O)NC2CC=C(C(=O)OCC(F)(F)F)C2)CN(c2cc(F)cc(Cl)c2)C(=O)O1 (stereo not shown) [Compound 142]
0: Barnyardgrass plant response rating ([1]; 16 g ai/ha, 0 to 100 scale) | Barnyardgrass plant response rating (0-100) [1, 27] | Blackgrass plant response rating ([2]; 16 g ai/ha, 0 to 100 scale) | Blackgrass plant response rating (0-100) [2, 27] | Corn plant response rating (corn (Zea mays) [3]; 16 g ai/ha, 0 to 100 scale) | Corn plant response rating (0-100) (corn (Zea mays) [3]; [27]) | Foxtail, Green plant response rating ([4]; 16 g ai/ha, 0 to 100 scale) | Foxtail, Green plant response rating (0-100) [4, 27] | Kochia plant response rating (kochia (Bassia scoparia) [5]; 16 g ai/ha, 0 to 100 scale) | Kochia plant response rating (0-100) (kochia (Bassia scoparia) [5]; [27]) | Oat, Wild plant response rating ([6]; 16 g ai/ha, 0 to 100 scale) | Oat, Wild plant response rating (0-100) [6, 27] | Ragweed plant response rating ([7]; 16 g ai/ha, 0 to 100 scale) | Ragweed plant response rating (0-100) [7, 27] | Ryegrass, Italian plant response rating ([8]; 16 g ai/ha, 0 to 100 scale) | Ryegrass, Italian plant response rating (0-100) [8, 27] | Soybean plant response rating (0-100) (soybean (Glycine max) [9]) | Wheat plant response rating ([10]; 16 g ai/ha, 0 to 100 scale) | Wheat plant response rating (0-100) [10, 27] | Barnyardgrass plant response rating (0-100) [11, 28] | Barnyardgrass plant response rating (0 to 100 scale) [11, 29] | Blackgrass plant response rating (0-100) [12, 28] | Blackgrass plant response rating (0 to 100 scale) [12, 29] | Corn plant response rating (0-100) (corn (Zea mays) [13]; [28]) | Corn plant response rating (0 to 100 scale) (corn (Zea mays) [13]; [29]) | Galium plant response rating (0-100) [14, 28] | Galium plant response rating (0 to 100 scale) [14, 29] | Foxtail, Green plant response rating (0-100) [15, 28] | Foxtail, Green plant response rating (0 to 100 scale) [15, 29] | Horseweed plant response rating (0-100) [16, 28] | Horseweed plant response rating (0 to 100 scale) [16, 29] | Kochia plant response rating (0-100) (kochia (Bassia scoparia) [17]; [28]) | Kochia plant response rating (0 to 100 scale) (kochia (Bassia scoparia) [17]; [29]) | Oat, Wild plant response rating (0-100) [18, 28] | Oat, Wild plant response rating (0 to 100 scale) [18, 29] | Pigweed, Palmer plant response rating (0-100) [19, 28] | Pigweed, Palmer plant response rating (0 to 100 scale) [19, 29] | Ragweed plant response rating (0-100) [20, 28] | Ragweed plant response rating (0 to 100 scale) [20, 29] | Ryegrass, Italian plant response rating (0-100) [21, 28] | Ryegrass, Italian plant response rating (0 to 100 scale) [21, 29] | Soybean plant response rating (0-100) (soybean (Glycine max) [22]; [28]) | Soybean plant response rating (0 to 100 scale) (soybean (Glycine max) [22]; [29]) | Wheat plant response rating (0-100) [23, 28] | Wheat plant response rating (0 to 100 scale) [23, 29] | Plant response rating, Barnyardgrass (0 to 100 scale, 0 is no effect and 100 is complete control) [24] | Plant response rating, Ducksalad (0 to 100 scale, 0 is no effect and 100 is complete control) [25] | Plant response rating, Rice (0 to 100 scale, 0 is no effect and 100 is complete control) (rice (Oryza sativa)) | Plant response rating, Sedge, Umbrella (0 to 100 scale, 0 is no effect and 100 is complete control) [26]
